Experiments:
M71 odorant receptor [1] = molecular target: T1, M71 odorant receptor (Mus musculus, UniProt Q60893); test: patch clamp of dendritic knobs of M71- or M71::GFP-expressing olfactory sensory neurons, dose response; type: cell-based; set-up: gene Or8a1; full-length M71 and M71::GFP C-terminal fusion expressed in olfactory sensory neurons
T1 sequence (Q60893 1-309): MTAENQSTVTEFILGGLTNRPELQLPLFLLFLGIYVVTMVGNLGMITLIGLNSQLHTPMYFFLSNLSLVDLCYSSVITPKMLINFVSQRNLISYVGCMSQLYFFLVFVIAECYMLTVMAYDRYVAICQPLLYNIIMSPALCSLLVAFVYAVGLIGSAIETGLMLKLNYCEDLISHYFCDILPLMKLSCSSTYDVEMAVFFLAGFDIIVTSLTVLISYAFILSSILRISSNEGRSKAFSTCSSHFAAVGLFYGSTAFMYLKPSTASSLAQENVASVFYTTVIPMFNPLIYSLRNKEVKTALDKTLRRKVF

M71 odorant receptor [2] = molecular target: T1, M71 odorant receptor; set-up: gene Or8a1

Work on CC(=O)c1ccccc1N [2aACP, 2-amino acetophenone] yielded an EC50 (M71 odorant receptor [1]) of 650 ± 80 nM.
In the case of CCc1occc(=O)c1O [eMLT, ethyl maltol], the “patch clamp of dendritic knobs of olfactory sensory neurons, peak current at 10” value (M71 odorant receptor [2]) is reported as “olfactory neurons expressing either M71 or M71::GFP are activated by M71 specific ligands”.
